In data set [1] the target is T1, c-Kit(V654A) (Homo sapiens, UniProt P10721, V654A).
T1 construct: recombinant human c-Kit, amino acids 544-end containing the V654A mutation; GST (N)
The experiment in a line: c-Kit(V654A) assay (33P-ATP filter binding kinase assay). Type of data set: biochemical. The settings on record: recombinant human c-Kit aa 544-end V654A, ATP 200 μM. In short, it runs like this:
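Radiometric filter-binding read-out: substrate 33P incorporation counted by scintillation after P30 filtermat washes in 75 mM phosphoric acid and methanol. Enzyme: N-GST recombinant human c-Kit aa 544-end carrying V654A.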

Data set [2] in a line: Determination of solubility. Particulars: 20 mM Sorensen phosphate buffer, pH 7.4, aqueous buffer, kinetic from dmso stock.
Protocol: (§2) In a 96 well filtration plate, 2 μL of a 10 mM solution of the test compound in DMSO is added to 98 μL of 20 mM Sorensen phosphate buffer with pH 7.4. The mixture is incubated at room temperature for 120 min while agitating at 250 rpm followed by centrifugation at 2500 rpm for 3 min. After dilution by a factor of 2, the concentration of the test compound is determined using HPLC/UPLC with detection at a suitable wavelength and by comparison to a corresponding compound standard.
Data set [3] has as its target T2, GIST430/654 cell line expressing mutated constitutively active cKIT receptor tyrosine kinase (Δ560-576 deletion and V654A point mutation) (Homo sapiens, UniProt P10721, DEL560-576/V654A).
T2 construct: endogenous in cells; host or cells: GIST430/654 cells
As to the kind of experiment: Cellular cKIT autophosphorylation (phospho-Y307-cKIT, Luminex bead assay) in GIST430/654 cells. Type of data set: cell-based. Particulars: compounds 45 min, read-out: GIST 430/654 IC50. In short, it runs like this:
(§1)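 Phospho-Y307 cKIT in lysates was measured on a Luminex bead assay, with total-cKIT capture overnight at 4 °C and phosphospecific plus PE secondary detection. Cells had 45 min exposure to a compound dilution series the day after plating: GIST430 (Δ560-576) or GIST430/654 (Δ560-576/V654A, grown with 100 nM imatinib). IC50 values are relative to 0.3% DMSO-treated cells.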

A short description of data set [4]: Determination of Efflux-Ratio (ER) in Caco-2 cells. Particulars: human, Caco-2, pH 7.4. (Caco-2 monolayers are a common model of the intestinal barrier.)
For data set [5], the target named is T3, GIST430 cell line expressing constitutive active cKIT receptor tyrosine kinase (Δ560-576 deletion) (Homo sapiens, UniProt P10721, DEL560-576).
T3 construct: endogenous in cells; host or cells: GIST430 cells
T3 sequence (P10721 with tags, fused parts or gaps DEL560-576): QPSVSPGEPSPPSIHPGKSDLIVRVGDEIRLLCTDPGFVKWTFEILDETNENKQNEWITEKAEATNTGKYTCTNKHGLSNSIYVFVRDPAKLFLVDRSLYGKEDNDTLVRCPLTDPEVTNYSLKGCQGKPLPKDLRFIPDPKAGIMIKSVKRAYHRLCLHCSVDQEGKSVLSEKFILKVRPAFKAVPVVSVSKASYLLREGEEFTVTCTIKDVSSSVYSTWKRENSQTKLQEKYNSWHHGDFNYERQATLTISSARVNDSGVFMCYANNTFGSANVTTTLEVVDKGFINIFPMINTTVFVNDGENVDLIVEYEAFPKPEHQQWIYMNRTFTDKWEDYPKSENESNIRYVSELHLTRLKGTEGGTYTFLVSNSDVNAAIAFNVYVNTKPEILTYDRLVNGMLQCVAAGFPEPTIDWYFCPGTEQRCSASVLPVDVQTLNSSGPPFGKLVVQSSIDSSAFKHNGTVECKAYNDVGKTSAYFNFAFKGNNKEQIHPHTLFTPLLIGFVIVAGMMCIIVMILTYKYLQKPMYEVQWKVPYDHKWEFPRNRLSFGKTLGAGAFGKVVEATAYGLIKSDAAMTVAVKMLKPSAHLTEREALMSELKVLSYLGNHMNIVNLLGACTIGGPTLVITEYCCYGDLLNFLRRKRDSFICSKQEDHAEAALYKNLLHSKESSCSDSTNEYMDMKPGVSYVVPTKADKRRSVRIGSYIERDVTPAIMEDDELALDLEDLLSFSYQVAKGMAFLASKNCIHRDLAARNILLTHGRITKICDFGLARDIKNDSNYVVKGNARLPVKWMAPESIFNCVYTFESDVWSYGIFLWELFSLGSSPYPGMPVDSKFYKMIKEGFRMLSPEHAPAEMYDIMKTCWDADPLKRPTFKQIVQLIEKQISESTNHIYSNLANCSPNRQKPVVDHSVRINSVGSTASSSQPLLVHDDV
The experiment in a line: Cellular cKIT autophosphorylation (phospho-Y307-cKIT, Luminex bead assay) in GIST430 cells. Type of data set: cell-based. Particulars: cKIT autophosphorylation, GIST430 cells, compounds 45 min; read-out: GIST 430 IC50. The essentials: as §1

The conditions of data set [6]: pH 7.4.
Protocol: as §2

T1 sequence (P10721 544-976 V654A): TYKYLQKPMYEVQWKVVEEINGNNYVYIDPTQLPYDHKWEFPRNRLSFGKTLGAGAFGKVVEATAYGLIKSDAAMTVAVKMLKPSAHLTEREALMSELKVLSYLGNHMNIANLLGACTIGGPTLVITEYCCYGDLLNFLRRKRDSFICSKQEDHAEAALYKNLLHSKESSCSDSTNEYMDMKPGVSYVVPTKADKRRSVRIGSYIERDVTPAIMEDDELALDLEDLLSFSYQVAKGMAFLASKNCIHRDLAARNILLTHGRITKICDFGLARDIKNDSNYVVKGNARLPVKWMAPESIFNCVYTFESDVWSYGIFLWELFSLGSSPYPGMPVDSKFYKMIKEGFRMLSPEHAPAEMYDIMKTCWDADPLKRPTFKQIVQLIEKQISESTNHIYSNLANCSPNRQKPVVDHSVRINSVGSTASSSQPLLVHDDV
T2 sequence (P10721 with tags, fused parts or gaps DEL560-576/V654A): as the sequence (P10721 with tags, fused parts or gaps DEL560-576) above, with V612A counted along it

For `Cn1ncc(-c2ccc(CNc3cc(-c4cnc5cc(OCCCN6CCCC6)ccn45)ncn3)cc2)n1` [A84, [4-(2-methyl-2H-[1,2,3]triazol-4-yl)-benzyl]-{6-[7-(3-pyrrolidin-1-yl-propoxy)-imidazo[1,2-a]pyridin-3-yl]-pyrimidin-4-yl}-amine], the figures for the IC50 in data set [1], in data set [3] and in data set [5] were 2.8 nM, 45 nM and 2.4 nM, respectively. In addition, in data set [2], the solubility (commonly the concentration that dissolves in the medium under given conditions) at 120 min is at least 25 µM. The efflux ratio (commonly a quotient of directional permeabilities that is used to spot active efflux) at 2 h, 1 μM in data set [4] was below 15.

For the molecule `Cn1cc(-c2ccc(CNc3cc(-c4cnc5cc(OCCCN6CCC6)ccn45)ncn3)cc2)cn1` [A102], the IC50 in data set [1] came out at 9.8 nM; in data set [3] it was 46 nM; in data set [5] it was 3 nM. In addition, the solubility result in data set [6] is recorded as “at least 25 μM”.

`Cn1cc(-c2ccc(CNc3cc(-c4cnc5cc(OCCN6CCC6)ccn45)ncn3)cc2)cn1` [A99, 6-{7-[2-(azetidin-1-yl)ethoxy]imidazo[1,2-a]pyridin-3-yl}-N-{[4-(1-methyl-1H-pyrazol-4-yl)phenyl]methyl}pyrimidin-4-amine]: the values for the IC50 in data set [1] and in data set [3] were 8.2 nM and 62 nM, respectively. In addition, the solubility at 120 min in data set [2] was at least 25 µM. For the same molecule, the efflux ratio at 2 h, 1 μM in data set [4] is 15 to 50.

With `Cn1cc(-c2ccc(CNc3cc(-c4cnc5cc(OCCN6CCCC6)ccn45)ncn3)cc2)cn1` [A60, [4-(1-methyl-1H-pyrazol-4-yl)-benzyl]-{6-[7-(2-pyrrolidin-1-yl-ethoxy)-imidazo[1,2-a]pyridin-3-yl]-pyrimidin-4-yl}-amine], the IC50 in data set [1] was 8 nM; in data set [3], 70 nM; in data set [5] it was 4.9 nM. In addition, the solubility at 120 min in data set [2] was at least 25 µM. Besides, the efflux ratio at 2 h, 1 μM in data set [4] is below 15.

Regarding `Cn1ncc(-c2ccc(CNc3cc(-c4cnc5cc(OCCCN6CCC6)ccn45)ncn3)cc2)n1` [A120, {6-[7-(3-azetidin-1-yl-propoxy)-imidazo[1,2-a]pyridin-3-yl]-pyrimidin-4-yl}-[4-(2-methyl-2H-[1,2,3]triazol-4-yl)-benzyl]-amine], the IC50 worked out at 2.9 nM in data set [1], 52 nM in data set [3] and 2.3 nM in data set [5]. Moreover, in data set [2], the solubility at 120 min was at least 25 µM. Also, the efflux ratio at 2 h, 1 μM in data set [4] was below 15.

In the case of `F[C@@H]1CCN(c2ccc(CNc3cc(-c4cnc5ccccn45)ncn3)cn2)C1` [A153, N-({6-[(3R)-3-fluoropyrrolidin-1-yl]pyridin-3-yl}methyl)-6-{imidazo[1,2-a]pyridin-3-yl}pyrimidin-4-amine], the IC50 in data set [1] came out at 6.4 nM; in data set [3] it was 120 nM; in data set [5], 6.4 nM. Further, the solubility at 120 min in data set [2] was at least 25 µM. The efflux ratio at 2 h, 1 μM in data set [4] was below 15.

For `Cn1ncc(-c2ccc(CNc3cc(-c4cnc5cc(OCCN6CCC6)ccn45)ncn3)cc2)n1` [A100, 6-{7-[2-(azetidin-1-yl)ethoxy]imidazo[1,2-a]pyridin-3-yl}-N-{[4-(2-methyl-2H-1,2,3-triazol-4-yl)phenyl]methyl}pyrimidin-4-amine], the IC50 in data set [1] worked out at 9.2 nM; in data set [3], 38 nM. Besides, the solubility at 120 min in data set [2] was at least 25 µM. For the same molecule, in data set [4], the efflux ratio at 2 h, 1 μM was below 15.

Turning to `c1nc(NCc2ccc(-c3cocn3)cc2)cc(-c2cnc3cc(OCCCN4CCCC4)ccn23)n1` [A252, (4-oxazol-4-yl-benzyl)-{6-[7-(3-pyrrolidin-1-yl-propoxy)-imidazo[1,2-a]pyridin-3-yl]-pyrimidin-4-yl}-amine], the IC50 is 2.2 nM in data set [1] and 47 nM in data set [3]. In data set [2], this molecule displayed a solubility at 120 min of at least 25 µM. Moreover, the efflux ratio at 2 h, 1 μM in data set [4] was below 15.

For `Cn1cc(-c2ccc(CNc3cc(-c4cnc5cc(OCCN6CCN7CCC6C7)ccn45)ncn3)cc2)cn1` (centres unmarked) [A212, (6-{7-[2-(1,4-diaza-bicyclo[3.2.1]oct-4-yl)-ethoxy]-imidazo[1,2-a]pyridin-3-yl}-pyrimidin-4-yl)-[4-(1-methyl-1H-pyrazol-4-yl)-benzyl]-amine], the IC50 in data set [1] turned out to be 7.3 nM; in data set [3], 210 nM. This molecule also showed a solubility at 120 min in data set [2] of at least 25 µM. Further, the efflux ratio at 2 h, 1 μM in data set [4] was above 50.

On to `Cn1cc(-c2ccc(CNc3cc(-c4cnc5cc(OCCCN6CCCC6)ccn45)ncn3)cc2)cn1` [A75, [4-(1-methyl-1H-pyrazol-4-yl)-benzyl]-{6-[7-(3-pyrrolidin-1-yl-propoxy)-imidazo[1,2-a]pyridin-3-yl]-pyrimidin-4-yl}-amine], for which the results for the IC50 in data set [1], in data set [3] and in data set [5] were 8.5 nM, 59 nM and 2.9 nM, respectively. Further, the solubility at 120 min in data set [2] is at least 25 µM. Moreover, in data set [4], the efflux ratio at 2 h, 1 μM was below 15.

On to `c1ccn2c(-c3cc(NCc4ccc(-n5ccnc5)cc4)ncn3)cnc2c1` [A8, (6-Imidazo[1,2-a]23yridine-3-yl-pyrimidin-4-yl)-(4-imidazol-1-yl-benzyl)-amine], for which the IC50 came out at 23 nM in data set [1] and 500 nM in data set [3]. The molecule also yielded a solubility at 120 min in data set [2] of at least 25 µM. Besides, the efflux ratio at 2 h, 1 μM in data set [4] was below 15.

In the case of `Cc1nc(-c2ccc(CNc3cc(-c4cnc5cc(OCCCN6CCCC6)ccn45)ncn3)cc2)co1` [A242, [4-(2-methyl-oxazol-4-yl)-benzyl]-{6-[7-(3-pyrrolidin-1-yl-propoxy)-imidazo[1,2-a]pyridin-3-yl]-pyrimidin-4-yl}-amine], the IC50 was found to be 1.1 nM in data set [1] and 10000 nM in data set [3]. The solubility at 120 min in data set [2] is at least 25 µM. For the same molecule, the efflux ratio at 2 h, 1 μM in data set [4] was below 15.

Values taken from patent US12655142B2 (Merck Patent GmbH, priority 2019, dated 2026).
